Results: patent US20160114000A1 (Merck Sharp & Dohme, published 2016)

Key:
[1] = tested on: DIO mice (strain C57Bl6/NTac); test: Body weight change (%) relative to vehicle in DIO mice, second study, Example 19; type: in vivo; details: 3 nmol/kg daily, eight days
Method: In addition, the peptide of SEQ ID NO: 8 was administered at 15 nmol/kg, while the peptide of SEQ ID NOs: 10 and 11 were administered at 3 nmol/kg. Body weight was measured daily for eight days and body weight change is expressed as percent relative to vehicle (FIG. 2).

[2] = tested on: DIO mice (strain C57Bl6/NTac); test: Cumulative food intake in DIO mice, Example 20; type: in vivo; details: 3 nmol/kg, after 8 days of dosing, vs vehicle
Excerpt: For the studies in Examples 18, 19, 20, and 21, diet induced obesity (DIO) mice (strain C57Bl6/NTac; 20 weeks on a high fat diet, about 47 g) were divided into groups of eight mice per group and the initial average body weight, food intake and basal glucose of each group were matched before peptide administration. Each group of mice was subcutaneously injected daily with a dose of Co-agonist Peptide or vehicle control for 7 to 10 days. The peptides tested in this study were Co-agonist Peptides 1, 2, 3, 4, 5, and 6 (SEQ ID NOs: 6, 7, 8, 9, 10, and 11, respectively) at the doses that varied from 3 nmol/kg to 25 nmol/kg. Body weight, food intake and basal glucose were measured periodically during treatment.

[3] = target: T1, human GCGR (Homo sapiens, UniProt P47871); test: cAMP protocol, cells expressing human GCGR; type: cell-based; details: ratio of EC50 at human GCGR to EC50 at human GLP1R
T1 construct: expressed in transfected cells; grown under Geneticin and Hygromycin selection
T1 sequence (P47871 26-477): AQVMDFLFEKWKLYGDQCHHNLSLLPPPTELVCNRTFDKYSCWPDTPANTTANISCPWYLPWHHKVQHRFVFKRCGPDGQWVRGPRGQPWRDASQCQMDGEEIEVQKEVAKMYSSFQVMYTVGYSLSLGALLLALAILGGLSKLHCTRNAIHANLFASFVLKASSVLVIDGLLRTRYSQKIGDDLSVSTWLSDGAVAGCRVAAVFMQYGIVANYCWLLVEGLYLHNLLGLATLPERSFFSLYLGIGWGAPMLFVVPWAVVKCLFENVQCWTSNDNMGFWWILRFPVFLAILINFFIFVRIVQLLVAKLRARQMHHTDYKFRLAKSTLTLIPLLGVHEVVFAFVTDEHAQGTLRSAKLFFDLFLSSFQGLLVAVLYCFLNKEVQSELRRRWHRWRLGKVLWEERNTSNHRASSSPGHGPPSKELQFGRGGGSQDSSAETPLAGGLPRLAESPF
Method: The cAMP protocol was as follows.
Peptides were dissolved in 100% DMSO and serially diluted to generate 11 point titrations. The peptide solutions were then transferred into 384-well assay plates (150 nL/well). Assay ready frozen cells expressing human GLP-1R or human GCGR were suspended in growth media consisting of DMEM/F12 medium (GIBCO), 10% FBS (GIBCO), lx P/S (GIBCO), 800 μg/mL Geneticin (GIBCO), and 300 μg/mL Hygromycin (Invitrogen). Cells were then diluted in assay buffer consisting of PBS (GIBCO), 7.5% BSA (Perkin Elmer), 100 μM RO 20-1724 (Sigma), and 20% human serum (MP Biomedical). The cell suspensions (15 μL) were then added to the assay plates containing the peptide solutions (30,000 cells/well for human GCGR; 20,000 cells/well for GLP1R). The cells were incubated for 1 hour at room temperature in the dark. Production of cAMP was determined using HitHunter™ cAMPXS kits (DiscoverX). ED buffer (20 μL) was then added to each well and the plates were incubated for 1 hour at room temperature in the dark. Subsequently, EA buffer (20 μL) was added to each well, and the plates were incubated for 1-18 hours at room temperature in the dark. Luminescence was measured using an EnVision Multilabel plate reader (Perkin Elmer). EC50 values were calculated using ADA data analyzer software.

[4] = tested on: diet-induced obese (DIO) mice (strain C57Bl6/NTac); test: Cumulative body weight change (grams) in DIO mice, Example 18; type: in vivo; details: 9 nmol/kg daily, day 9
Method: Mice were administered a vehicle control or a dose of a peptide daily for nine days. […] The peptide of SEQ ID NO: 9 was administered at doses of 9 and 25 nmol/kg. Cumulative body weight change (grams) was measured each day of the study except on day 3. Results are shown in FIG. 1 and are expressed as mean±SEM.

hGCGR/hGLP1R (hTone) [3]: 0.90
SMILES: CCCCCCCCCCCCCCCC(=O)N[C@@H](CCC(=O)N[C@@H](CCC(=O)NCCCC[C@H](NC(=O)[C@H](CC(=O)O)NC(=O)[C@H](CO)NC(=O)[C@@H](NC(=O)[C@H](Cc1ccccc1)NC(=O)[C@@H](NC(=O)CNC(=O)[C@H](CCC(N)=O)NC(=O)[C@@H](CO)NC(=O)[C@@H](N)Cc1c[nH]cn1)[C@@H](C)O)[C@@H](C)O)C(=O)N[C@@H](CO)C(=O)N[C@@H](CCCCN)C(=O)N[C@@H](Cc1ccc(O)cc1)C(=O)N[C@@H](CC(C)C)C(=O)N[C@@H](CC(=O)O)C(=O)N[C@@H](C)C(=O)N[C@@H](CCCNC(=N)N)C(=O)N[C@@H](C)C(=O)N[C@@H](C)C(=O)N[C@@H](CCC(N)=O)C(=O)N[C@@H](CC(=O)O)C(=O)N[C@@H](Cc1ccccc1)C(=O)N[C@H](C(=O)N[C@@H](CCC(N)=O)C(=O)N[C@@H](Cc1c[nH]c2ccccc12)C(=O)N[C@@H](CC(C)C)C(=O)N[C@@H](CC(C)C)C(=O)N[C@@H](CC(=O)O)C(=O)N[C@H](C(N)=O)[C@@H](C)O)C(C)C)C(=O)O)C(=O)O [SEQ ID NO: 10]
weight loss, percent relative to vehicle [1]: approximately 17% | food intake [2]: significant suppression of food intake | weight loss [4]: approximately 13 grams
